Measurements reported in patent publication US20250313572A1, “MACROCYCLIC MCL-1 INHIBITORS AND METHODS OF USE” (AbbVie Inc., priority 2017, published 2025).
Where two headings read alike, the source gives them in different places.

What was measured:
[1] = system: AMO-1 human multiple myeloma tumor cell line; experiment: AMO-1 cell viability assay (CellTiter-Glo, 24 hours); assay type: cell-based; conditions: Homo sapiens, AMO1, 24 h, read-out: AMO-1 Viability IC50 (μM, 10% FBS), 10% FBS, 24 hours of compound treatment
GST-MCL-1 = GST-MCL-1 (Homo sapiens, UniProt Q07820); experiment: TR-FRET MCL-1 binding assay (competition with probe F-Bak)
Summary of the method: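 Test compounds, 11 three-fold dilutions from 25 μM final, incubated 2 hours at room temperature with GST-MCL-1, F-Bak probe and Tb-anti-GST antibody. TR-FRET read at 340/35 nm excitation with 520/525 and 495/510 nm emission. Run without human serum and with 10% HS.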

[2] = system: NCI-H929 human multiple myeloma tumor cell line; experiment: NCI-H929 cell viability assay (CellTiter-Glo, 24 hours); assay type: cell-based; conditions: Homo sapiens, NCI-H929, 24 h, read-out: H929 Viability IC50 (μM, 10% FBS), 10% FBS, 24 hours of compound treatment
[3] = MCL-1 Binding Ki (nM, 10% HS), in the presence of 10% HS (human serum)
[4] = without HS, read-out: MCL-1 Binding Ki

Sequence of GST-MCL-1 (Q07820 whole entry): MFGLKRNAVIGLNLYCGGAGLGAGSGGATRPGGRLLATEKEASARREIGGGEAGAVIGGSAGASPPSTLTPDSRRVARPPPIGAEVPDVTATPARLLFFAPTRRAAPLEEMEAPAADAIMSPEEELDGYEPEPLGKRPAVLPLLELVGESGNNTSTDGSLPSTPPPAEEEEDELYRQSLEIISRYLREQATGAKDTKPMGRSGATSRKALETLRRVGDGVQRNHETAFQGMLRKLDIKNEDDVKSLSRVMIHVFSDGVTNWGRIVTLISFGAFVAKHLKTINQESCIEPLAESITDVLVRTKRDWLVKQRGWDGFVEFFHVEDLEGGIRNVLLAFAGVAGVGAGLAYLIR

Row | SMILES | IC50 [1] [µM] | Ki (GST-MCL-1; [3]) [nM] | Ki (GST-MCL-1; [4]) [nM] | IC50 [2] [µM]
1 | COC[C@H](COc1ccc(-c2nccc(COc3ccc4cc3C[C@H](C(=O)O)Oc3ncnc5sc(-c6ccc(F)cc6)c(c35)-c3c(C)c(Cl)c(c(Cl)c3C)O[C@H](CN3CCN(C)CC3)CO4)n2)cc1)OC [Example 137, (7R,16R)-19,23-dichloro-10-[(2-{4-[(2R)-2,3-dimethoxypropoxy]phenyl}pyrimidin-4-yl)methoxy]-1-(4-fluorophenyl)-20,22-dimethyl-16-[(4-methylpiperazin-1-yl)methyl]-7,8,15,16-tetrahydro-18,21-etheno-9,13-(metheno)-6,14,17-trioxa-2-thia-3,5-diazacyclononadeca[1,2,3-cd]indene-7-carboxylic acid] | 0.000394 | 0.999 | 0.031 | 0.000286
2 | COCCOCCOCCOCc1ccc(-c2nccc(COc3ccc4cc3C[C@H](C(=O)O)Oc3ncnc5sc(-c6ccc(F)cc6)c(c35)-c3c(C)c(Cl)c(c(Cl)c3C)O[C@H](CN3CCN(C)CC3)CO4)n2)c(OCCOCCOCCOC)c1 [Example 153, (7R,16R)-19,23-dichloro-1-(4-fluorophenyl)-10-({2-[2-{2-[2-(2-methoxyethoxy)ethoxy]ethoxy}-4-(2,5,8,11-tetraoxadodecan-1-yl)phenyl]pyrimidin-4-yl}methoxy)-20,22-dimethyl-16-[(4-methylpiperazin-1-yl)methyl]-7,8,15,16-tetrahydro-18,21-etheno-13,9-(metheno)-6,14,17-trioxa-2-thia-3,5-diazacyclononadeca[1,2,3-cd]indene-7-carboxylic Acid] | 0.00728 | 0.023 | 0.001 | 0.00688
3 | COCCOCCOCCOCC1CN(c2nccc(COc3ccc4cc3C[C@H](C(=O)O)Oc3ncnc5sc(-c6ccc(F)cc6)c(c35)-c3c(C)c(Cl)c(c(Cl)c3C)O[C@H](CN3CCN(C)CC3)CO4)n2)C1 [Example 94, (7R,16R)-19,23-dichloro-1-(4-fluorophenyl)-20,22-dimethyl-16-[(4-methylpiperazin-1-yl)methyl]-10-({2-[3-(2,5,8,11-tetraoxadodecan-1-yl)azetidin-1-yl]pyrimidin-4-yl}methoxy)-7,8,15,16-tetrahydro-18,21-etheno-9,13-(metheno)-6,14,17-trioxa-2-thia-3,5-diazacyclononadeca[1,2,3-cd]indene-7-carboxylic Acid] | 0.00203 | 1.08 | 0.181 | 0.00184
4 | Cc1c(Cl)c2c(Cl)c(C)c1-c1c(-c3ccc(F)cc3)sc3ncnc(c13)O[C@@H](C(=O)O)Cc1cc(ccc1OCc1ccnc(-c3ccc(OC[C@H](O)CO)cc3)n1)OC[C@@H](CN1CCN(C)CC1)O2 [Example 22, (7R,16R)-19,23-dichloro-10-[(2-{4-[(2R)-2,3-dihydroxypropoxy]phenyl}pyrimidin-4-yl)methoxy]-1-(4-fluorophenyl)-20,22-dimethyl-16-[(4-methylpiperazin-1-yl)methyl]-7,8,15,16-tetrahydro-18,21-etheno-13,9-(metheno)-6,14,17-trioxa-2-thia-3,5-diazacyclononadeca[1,2,3-cd]indene-7-carboxylic Acid] | 0.00133 | 0.214 | 0.015 | 0.0018
5 | Cc1c(Cl)c2c(Cl)c(C)c1-c1c(-c3ccc(F)cc3)sc3ncnc(c13)O[C@@H](C(=O)O)Cc1cc(ccc1OCc1ccnc(-c3ccc(OCC4COCCOCCOCCOCCO4)cc3)n1)OC[C@@H](CN1CCN(C)CC1)O2 (stereo partly drawn) [Example 107, (7R,16R)-19,23-dichloro-1-(4-fluorophenyl)-20,22-dimethyl-16-[(4-methylpiperazin-1-yl)methyl]-10-[(2-{4-[(1,4,7,10,13-pentaoxacyclopentadecan-2-yl)methoxy]phenyl}pyrimidin-4-yl)methoxy]-7,8,15,16-tetrahydro-18,21-etheno-13,9-(metheno)-6,14,17-trioxa-2-thia-3,5-diazacyclononadeca[1,2,3-cd]indene-7-carboxylic Acid] | 0.00147 | 0.412 | 0.026 | 0.000552
6 | CO[C@@H]1CO[C@H]2[C@@H]1OC[C@H]2OCCOc1nccc(COc2ccc3cc2C[C@H](C(=O)O)Oc2ncnc4sc(-c5ccc(F)cc5)c(c24)-c2c(C)c(Cl)c(c(Cl)c2C)O[C@H](CN2CCN(C)CC2)CO3)n1 [Example 134, (7R,16R)-19,23-dichloro-1-(4-fluorophenyl)-10-{[2-(2-{[(3R,3aR,6R,6aR)-6-methoxyhexahydrofuro[3,2-b]furan-3-yl]oxy}ethoxy)pyrimidin-4-yl]methoxy}-20,22-dimethyl-16-[(4-methylpiperazin-1-yl)methyl]-7,8,15,16-tetrahydro-18,21-etheno-13,9-(metheno)-6,14,17-trioxa-2-thia-3,5-diazacyclononadeca[1,2,3-cd]indene-7-carboxylic Acid] | 0.00304 | 0.339 | 0.047 | 0.01
7 | COCCOCCOCCOCc1cc(OC[C@H]2COCCO2)ccc1-c1nccc(COc2ccc3cc2C[C@H](C(=O)O)Oc2ncnc4sc(-c5ccc(F)cc5)c(c24)-c2c(C)c(Cl)c(c(Cl)c2C)O[C@H](CN2CCN(C)CC2)CO3)n1 [Example 155, (7R,16R)-19,23-dichloro-10-({2-[4-{[(2R)-1,4-dioxan-2-yl]methoxy}-2-(2,5,8,11-tetraoxadodecan-1-yl)phenyl]pyrimidin-4-yl}methoxy)-1-(4-fluorophenyl)-20,22-dimethyl-16-[(4-methylpiperazin-1-yl)methyl]-7,8,15,16-tetrahydro-18,21-etheno-13,9-(metheno)-6,14,17-trioxa-2-thia-3,5-diazacyclononadeca[1,2,3-cd]indene-7-carboxylic Acid] | 0.000188 | 0.03 | 0.001 | 0.000187
8 | COCCOCCOCCOCC1(c2nccc(COc3ccc4cc3C[C@H](C(=O)O)Oc3ncnc5sc(-c6ccc(F)cc6)c(c35)-c3c(C)c(Cl)c(c(Cl)c3C)O[C@H](CN3CCN(C)CC3)CO4)n2)CC1 [Example 29, (7R,16R)-19,23-dichloro-1-(4-fluorophenyl)-20,22-dimethyl-16-[(4-methylpiperazin-1-yl)methyl]-10-({2-[1-(2,5,8,11-tetraoxadodecan-1-yl)cyclopropyl]pyrimidin-4-yl}methoxy)-7,8,15,16-tetrahydro-18,21-etheno-13,9-(metheno)-6,14,17-trioxa-2-thia-3,5-diazacyclononadeca[1,2,3-cd]indene-7-carboxylic Acid] | 0.000894 | 1.21 | 0.204 | 0.000942
9 | Cc1c(Cl)c2c(Cl)c(C)c1-c1c(-c3ccc(F)cc3)sc3ncnc(c13)O[C@@H](C(=O)O)Cc1cc(ccc1OCc1ccnc(C3=CCC(CC(=O)O)CC3)n1)OC[C@@H](CN1CCN(C)CC1)O2 (single isomer, unassigned) [Example 35, (7R,16R)-10-({2-[(4S*)-4-(carboxymethyl)cyclohex-1-en-1-yl]pyrimidin-4-yl}methoxy)-19,23-dichloro-1-(4-fluorophenyl)-20,22-dimethyl-16-[(4-methylpiperazin-1-yl)methyl]-7,8,15,16-tetrahydro-18,21-etheno-13,9-(metheno)-6,14,17-trioxa-2-thia-3,5-diazacyclononadeca[1,2,3-cd]indene-7-carboxylic Acid] | 0.01 | 0.113 | 0.007 | 0.017
10 | Cc1c(Cl)c2c(Cl)c(C)c1-c1c(-c3ccc(F)cc3)sc3ncnc(c13)O[C@@H](C(=O)O)Cc1cc(ccc1OCc1ccnc(N3C[C@H](O)[C@@H](O)C3)n1)OC[C@@H](CN1CCN(C)CC1)O2 [Example 56, (7R,16R)-19,23-dichloro-10-({2-[(3S,4S)-3,4-dihydroxypyrrolidin-1-yl]pyrimidin-4-yl}methoxy)-1-(4-fluorophenyl)-20,22-dimethyl-16-[(4-methylpiperazin-1-yl)methyl]-7,8,15,16-tetrahydro-18,21-etheno-13,9-(metheno)-6,14,17-trioxa-2-thia-3,5-diazacyclononadeca[1,2,3-cd]indene-7-carboxylic Acid] | 0.0534 | 1.18 | 0.157 | 0.13
11 | COCCOCCOCCOCC1(c2nccc(COc3ccc4cc3C[C@H](C(=O)O)Oc3ncnc5sc(-c6ccc(F)cc6)c(c35)-c3c(C)c(Cl)c(c(Cl)c3C)O[C@H](CN3CCN(C)CC3)CO4)n2)CCC1 [Example 45, (7R,16R)-19,23-dichloro-1-(4-fluorophenyl)-20,22-dimethyl-16-[(4-methylpiperazin-1-yl)methyl]-10-({2-[1-(2,5,8,11-tetraoxadodecan-1-yl)cyclobutyl]pyrimidin-4-yl}methoxy)-7,8,15,16-tetrahydro-18,21-etheno-13,9-(metheno)-6,14,17-trioxa-2-thia-3,5-diazacyclononadeca[1,2,3-cd]indene-7-carboxylic Acid] | 0.000461 | 0.343 | 0.094 | 0.000598
12 | COCCOCCOCCOc1cncc(COc2ccc3cc2C[C@H](C(=O)O)Oc2ncnc4sc(-c5ccc(F)cc5)c(c24)-c2c(C)c(Cl)c(c(Cl)c2C)O[C@H](CN2CCN(C)CC2)CO3)n1 [Example 176, (7R,16R)-19,23-dichloro-1-(4-fluorophenyl)-10-[(6-{2-[2-(2-methoxyethoxy)ethoxy]ethoxy}pyrazin-2-yl)methoxy]-20,22-dimethyl-16-[(4-methylpiperazin-1-yl)methyl]-7,8,15,16-tetrahydro-18,21-etheno-13,9-(metheno)-6,14,17-trioxa-2-thia-3,5-diazacyclononadeca[1,2,3-cd]indene-7-carboxylic Acid] | 0.00386 | 0.868 | 0.151 | 0.0073
